One data set deals with arginine loaded dogs. Nature of the data set: Infusion of glicentin and glucagon into the pancreatic artery of arginine loaded dogs; plasma hormones and blood glucose. It counts as in vivo, dog. Particulars: glicentin 100 pmol or 400 pmol infused into pancreatic artery for 10 minutes.
A further data set relates to male MALB/c mice. Nature of the data set: Intraperitoneal administration to mice, observation of appearance. It is filed as in vivo. Particulars: 10 mg/kg intraperitoneally, male MALB/c mice (6 weeks age).

Procedure for arginine loaded dogs: Healthy mongrel dogs weighing 13 to 17 kg were subjected to the test after an overnight fast (A. Ohneda et al., Horm. Metab. Res., 9, 447-452 (1977)).
The animals were anesthetized with sodium pentobarbital (Nembutal®) and their abdomens were opened. […] After the operation was completed, saline solution containing 0.5% arginine was infused into the pancreatic artery at a constant rate of 2 ml/min through the cannula using an infusion pump. […] 4 ml portions of blood samples for hormone assay were collected at various intervals into a glass tube containing 1000 KIU aprotinine and 10 mg EDTA.
The plasma insulin was measured in accordance with a known method mentioned in C.
The blood glucose was measured for blood drawn from the femoral artery by the glucose oxidase method using a test kit for the determination of blood glucose (available from Wako Pure Chemical Industries, Japan under the trade name of "Glucose B-Test Wako").

Turning to “human glicentin (natural type): peptide of 69 amino acid residues, SEQ ID NO:2, produced by genetic engineering in E. coli”, the “insulin secretion (plasma insulin, IRI)” value with arginine loaded dogs (anesthetized dogs under 0.5% arginine infusion) is given as “stimulates insulin secretion”. Also, the “glucagon level (IRG(G 21))” value in the data set with arginine loaded dogs (antiserum G 21) is listed as “not increased”. Moreover, in the data set on arginine loaded dogs (blood from femoral artery, glucose oxidase method), the blood glucose levels result is given as “no change in blood glucose levels”. Besides, the change in appearance entry with male MALB/c mice was “no change in appearance”.
